Laboratory results taken from patent EP3256120B1, “PSORALEN DERIVATIVES AS NON-PEPTIDIC INHIBITORS OF CHYMOTRYPSIN-LIKE ACTIVITY OF THE IMMUNOPROTEASOME” (Univerza v Ljubljani, priority 2015, dated 2016).

What was measured:
[1] = biological target: T1, β5i subunit of human immunoproteasome (Homo sapiens, UniProt P28062); assay: Evaluation of reversible inhibitors of the β5i subunit (mode of inhibition and Ki, Dixon plots); assay type: biochemical; conditions: competitive inhibitors (footnote b), Suc-LLVY-AMC 12.5 µM to 125 µM, immunoproteasome 0.25 µg/mL
T1 construct: purchased Boston Biochem, Inc., Cambridge, MA, USA
Procedure: The test compounds from the preliminary inhibitory assay with residual activities equal to or lower than 60% were characterized further by determining the mode of inhibition (competitive, non-competitive, uncompetitive, mixed inhibition). The assays were performed as described above. Five or more different concentrations of the test compounds ranging from 0.1 µM to 100 µM were used to determine the kinetic parameters at four different substrate concentrations (Suc-LLVY-AMC ranging from 12.5 µM to 125 µM). Final concentration of the immunoproteasome remained the same as before (0.25 µg/mL). The results obtained were analyzed as outlined above (see Equations 1 and 2), and two plots were derived using Microsoft Office Excel 2007:
- 1/v plotted against inhibitor concentration (Dixon plot; v- velocity, equal to the slope of the line k),
- [S]/v plotted against different concentrations of inhibitor ([S] equals substrate concentration).
The mode of inhibition was estimated from the relative positions of the lines obtained.

[2] = biological target: T1, β5i subunit of human immunoproteasome; assay: Evaluation of irreversible inhibitors of the β5i subunit (IC50); assay type: biochemical; conditions: Suc-LLVY-AMC 25 µM, immunoproteasome 0.25 µg/mL, fluorescence increase between 20th and 60th minute
Procedure: The test compounds with time-dependent inhibitory activities were treated and evaluated as irreversible inhibitors. The assay was performed as described in the 44 section Preliminary evaluation of inhibition of the β5i subunit of human immunoproteasome. At least seven different concentrations of the test compounds ranging from 0.001 µM to 50 µM were used. The final concentrations of the substrate Suc-LLVY-AMC and the immunoproteasome were 25 µM and 0.25 µg/mL, respectively. At least two independent experiments were performed. The increases in fluorescence intensity between 20th and 60th minute and appropriate test compounds concentrations were analyzed with GraphPad Prism 5.01 to determine the IC50 values. Table 1. Inhibitory potencies of reversible psoralen-based inhibitors against the β5i subunit of the human immunoproteasome. The following compounds are not part of the invention.

[3] = biological target: T1, β5i subunit of human immunoproteasome; assay: Preliminary evaluation of inhibition of the β5i subunit (residual activity, Suc-LLVY-AMC fluorescence); assay type: biochemical; conditions: test compound 10 µM, 30 min preincubation at 37 °C, Suc-LLVY-AMC 25 µM, immunoproteasome 0.25 µg/mL
Procedure: Appropriate stock solutions (mM concentration) of the test compounds were prepared in DMSO. Subsequent dilutions of the compounds, as well as the immunoproteasome and the substrate were prepared in buffered solution (50 mM Tris-HCI (pH 8.0), 0.5 mM EDTA, 0.01% SDS). To a 96-well black microtiter plate, human immunoproteasome (final concentration, 0.25 µg/mL) (Boston Biochem, Inc., Cambridge, MA, USA) was added, followed by either test compounds (10 µM final concentration) or buffered solution (with and without the DMSO), which accounted for the control group. Microtiter plate was covered with aluminum foil and incubated at 37 °C for 30 minutes with medium agitation. The reaction was initiated by the addition of β5- and β5i-selective substrate Suc-LLVY-AMC (25 µM final concentration). The reaction progress was recorded on the BioTek Synergy HT microplate reader by monitoring fluorescence at 460 nm (λex = 360 nm) every 5 minutes for 120 min at 37 °C. At least two independent experiments were performed. The initial linear ranges (between 20th and 60th minute) were used to calculate the slope of the line (k) by dividing the difference of fluorescence intensities (F) with the time difference (t) (Equation 1). The residual activities in percentages were calculated from the slopes obtained (Equation 2). The calculations were performed in Microsoft Office Excel 2007. k = ΔF/Δt [formula] • k slope of the line • F fluorescence intensity • t time (min) Residualactivityin% = kt /knt *100% [formula] • kt slope of the line for the treated enzyme • knt slope of the line for the non-treated enzyme

[4] = system: other catalytic subunits (β1, β1i, β2, β2i); conditions: cited from earlier work
[5] = system: normal peripheral blood mononuclear cells; conditions: exposure to high (up to 20 µM) concentrations; cited from earlier work
proteasomal β5 = proteasomal β5 (Homo sapiens, UniProt P28074); conditions: Singh A.V. et al. 2011; cited from earlier work
β5i = β5i (Homo sapiens, UniProt P28062); conditions: inhibition of the β5i; Singh A.V. et al. 2011; cited from earlier work
[6] = system: MHC-I receptors on the surface; conditions: Muchamuel T. et al. 2009; cited from earlier work

Ki [1] | RA (%) [3] | SMILES | other results
2.4 µM | – | Cc1c(CC(=O)O)c(=O)oc2cc3occ(-c4ccccc4)c3cc12 | –
– | – | C=CC(=O)Nc1c(C)c2cc3c(-c4ccccc4)coc3cc2oc1=O | IC50 [2]: 20.5 µM
– | 83% | Cc1c(CCC(=O)O)c(=O)oc2cc3occ(C(C)(C)C)c3cc12 [n=2, 1R=t-Bu] | –
– | 88% | Cc1c(N)c(=O)oc2cc3occ(-c4ccccc4)c3cc12 | –
1.6 µM | – | Cc1c(CCC(=O)O)c(=O)oc2cc3occ(-c4ccccc4)c3cc12 | –
– | – | CC1=C(C(=O)N[C@H](C)C(=O)N[C@@H](Cc2c[nH]c3ccccc23)C(=O)N[C@@H](Cc2ccccc2)C(=O)[C@@]2(C)CO2)Cc2ccccc21 [PR-924] | inhibition of other catalytic subunits [4]: little or no inhibition; toxicities in normal peripheral blood mononuclear cells [5]: no significant toxicities; selectivity for inhibition of the β5i over proteasomal β5 (proteasomal β5): > 100 fold; IC50 (β5i): 0.022 µM
137 µM | – | Cc1c(CCC(=O)O)c(=O)oc2cc3occ(-c4ccc(Br)cc4)c3cc12 | –
198 µM | – | Cc1c(CC(=O)O)c(=O)oc2cc3occ(C4CCCCC4)c3cc12 | –
52.3 µM | – | Cc1cc(-c2coc3cc4oc(=O)c(CCC(=O)O)c(C)c4cc23)c(C)s1 | –
– | 88% | Cc1coc2cc3oc(=O)c(CC(=O)O)c(C)c3cc12 [n=1, 1R=Me] | –
– | 102% | Cc1c(CCC(=O)O)c(=O)oc2cc3occ(C4CCCCC4)c3cc12 | –
– | – | COc1ccc(C[C@H](NC(=O)[C@H](C)NC(=O)CN2CCOCC2)C(=O)N[C@@H](Cc2ccccc2)C(=O)[C@@]2(C)CO2)cc1 [PR-957] | reduction of the expression of MHC-I receptors on the surface to [6]: 50%
89.3 µM | – | Cc1c(CC(=O)O)c(=O)oc2cc3occ(-c4ccco4)c3cc12 | –
8.2 µM | – | COc1ccc(-c2coc3cc4oc(=O)c(CC(=O)O)c(C)c4cc23)cc1 | –
116 µM | – | Cc1c(CCC(=O)O)c(=O)oc2cc3occ(-c4ccco4)c3cc12 | –
– | – | Cc1c(CC(=O)ON2C(=O)CCC2=O)c(=O)oc2cc3occ(-c4ccccc4)c3cc12 | IC50 [2]: 6.4 µM
36.5 µM | – | Cc1cc(-c2coc3cc4oc(=O)c(CC(=O)O)c(C)c4cc23)c(C)s1 | –
3.8 µM | – | O=C(O)Cc1cc2cc3c(-c4ccccc4)coc3cc2oc1=O | –
– | 94% | Cc1coc2cc3oc(=O)c(CCC(=O)O)c(C)c3cc12 [n=2, 1R=Me] | –
29.6 µM | – | COc1cccc(-c2coc3cc4oc(=O)c(CCC(=O)O)c(C)c4cc23)c1 | –
12.7 µM | – | Cc1c(CC(=O)O)c(=O)oc2cc3occ(-c4ccc(Br)cc4)c3cc12 | –
39.6 µM | – | Cc1c(CN)c(=O)oc2cc3occ(-c4ccccc4)c3cc12 | –
– | 100% | Cc1cc(-c2coc3cc4oc(=O)c(CCC(=O)O)c(C)c4cc23)c(C)o1 | –
– | 84% | COc1ccc(-c2coc3cc4oc(=O)c(CCC(=O)O)c(C)c4cc23)cc1 | –
351 µM | – | Cc1cc(-c2coc3cc4oc(=O)c(CC(=O)O)c(C)c4cc23)c(C)o1 | –
– | 82% | Cc1c(C(=O)O)c(=O)oc2cc3occ(-c4ccccc4)c3cc12 | –
– | – | Cc1c(CCC(=O)ON2C(=O)CCC2=O)c(=O)oc2cc3occ(-c4ccccc4)c3cc12 | IC50 [2]: 0.09 µM
7 µM | – | COc1cccc(-c2coc3cc4oc(=O)c(CC(=O)O)c(C)c4cc23)c1 | –
– | 85% | Cc1c(CC(=O)O)c(=O)oc2cc3occ(C(C)(C)C)c3cc12 [n=1, 1R=t-Bu] | –
